Tested on: A375 human melanoma xenografts
Experiment: In vivo therapeutic efficacy in A375 human melanoma xenografts (tumor volume, T/C, TGI), Example 14
Design: species or system human tumor in female BALB/c nude mice
Conditions: for Tumor volume: mean ± SEM; for T/C / TGI: PG-D21
Description: Agents were tested in the A375 human melanoma xenografts. Compound 26 and Compound 141 were administered to BALB/c nude mice bearing A375 tumors from PG-DO and dosed via PO twice a day (BID) or third a day (TIP) or dosed P daily (QD) from PG-D. Dabrafenib was administered to BALB/c nude mice bearing A375 tumors from PG-D1 and dosed via P daily (QD). Compound 26 was dosed at 1.5 mg/kg (QD), 2 mg/kg (TID), 3 mg/kg (BID), 6 mg/kg (QD) and 10 mg/kg (BID) for 21 days. Compound 141 was dosed at 0.75 mg/kg (BID), 1 mg/kg (TID), 1.5 mg/kg (BID), 3 mg/kg (QD) and 5 mg/kg (BID) for 21 days. Dabrafenib was dosed at 100 mg/kg for 21 days. This study was non-GLP.
One hundred and thirty-eight female BALB/c nude Mus Musculus mice procured from Shanghai Lingchang Biological Science and Technology Co., LTD between the ages of six to eight weeks and with body weight between eighteen and twenty-two grams were used for the study. A spare mouse was also procured.
The A375 tumor cells were maintained in vitro in DMEM medium supplemented with 10% fetal bovine serum and 1% Penicillin-Streptomycin at 37° C. in an atmosphere of 5% CO2 in air. The tumor cells were routinely sub-cultured twice weekly. The cells growing in an exponential growth phase were harvested and counted for tumor inoculation.
Each mouse was inoculated subcutaneously at the right flank with A375 cells (5×10^6) in 0.2 mL of PBS supplemented with Matrigel (PBS: Matrigel=1:1) for tumor development. Animals were grouped for efficacy study on day 15 after tumor inoculation when the average tumor volume reached 220 mm^3. The test articles administration and the animal numbers in each group are shown in the above experimental Table 75.
At the time of routine monitoring, the animals were checked daily for any effects of tumor growth and treatments on normal behavior such as mobility, food and water consumption (by looking only), body weight gain/loss (body weights were measured twice weekly), eye/hair matting and any other abnormal effect as stated in the protocol. Death and observed clinical signs were recorded on the basis of the numbers of animals within each subset.
Prior to the onset of drug treatment, mice were measured for tumor size in two dimensions using a caliper, and the tumor volume (mm^3) was calculated using formula V=0.5 a×b^2 where a and b are the long and short diameters of the tumor in mm, respectively. Mice were randomized into different treatment groups based on the tumor volume.
The major endpoint was to see if the tumor growth could be delayed or mice could be cured. The tumor size was then used for calculations of T/C value. The T/C value (in percent) is an indication of antitumor effectiveness; T and C are the mean volumes of the treated and control groups, respectively on specified day.
TGI was calculated for each group using the formula: TGI (%)=[1−(Ti−T0)/(Ci−C0)]×100; Ti is the average tumor volume of a treatment group on a given day, T0 is the average tumor volume of the treatment group on the day of treatment start, Ci is the average tumor volume of the vehicle control group on the same day with Ti, and C0 is the average tumor volume of the vehicle group on the day of treatment start.
A one-way ANOVA followed by Dunnett's multiple comparison test was performed to compare tumor volume among vehicle group (Group 1) and treatment groups (Group 2-Group 12). All data were analyzed using GraphPad Prism, ns indicates p>0.05, * indicates p<0.05, ** indicates p<0.01, *** indicates p<0.001 and **** indicates p<0.0001.
Tumor growth inhibition of Compound 26, Compound 141 and dabrafenib in the treatment of female BALB/c nude mice bearing A375 xenografts was calculated based on tumor volume measured on […]. TGI and T/C were calculated respectively and the data are detailed in Table 82.

[1] = Compound 26, 1.5 mg/kg p.o. BID × 21 days

## CCN(C)S(=O)(=O)Nc1ccc(F)c(Oc2ccc3ncn([C@H]4COC5(CCN(C6CC7(C6)CN(c6cc8c(cc6F)c(N6CCC(=O)NC6=O)nn8C)C7)CC5)C4)c(=O)c3c2)c1C#N [Compound 26, (3R)-3-[6-[2-cyano-3-[[ethyl(methyl)sulfamoyl]amino]-6-fluoro-phenoxy]-4-oxo-quinazolin-3-yl]-8-[2-[3-(2,4-dioxohexahydropyrimidin-1-yl)-5-fluoro-1-methyl-indazol-6-yl]-2-azaspiro[3.3]heptan-6-yl]-1-oxa-8-azaspiro[4.5]decane]
3 mg/kg p.o. BID x 21 days, day 46 (dosing-free regrowth)
  Tumor volume: 1050 ± 191 mm^3
3 mg/kg p.o. BID x 21 days, day 49 (dosing-free regrowth)
  Tumor volume: 1328 ± 237 mm^3
3 mg/kg p.o. BID x 21 days, day 53 (dosing-free regrowth)
  Tumor volume: 1789 ± 341 mm^3
3 mg/kg p.o. BID x 21 days, day 56 (dosing-free regrowth)
  Tumor volume: 2242 ± 453 mm^3
3 mg/kg p.o. BID × 21 days
  Tumor Size on PG-D21 (Mean ± SEM): 48 ± 9 mm^3
  T/C: 2.5%
  TGI: 110.4%
6 mg/kg p.o. QD x 21 days, day 0
  Tumor volume: 220 ± 16 mm^3
6 mg/kg p.o. QD x 21 days, day 4
  Tumor volume: 243 ± 16 mm^3
6 mg/kg p.o. QD x 21 days, day 7
  Tumor volume: 158 ± 10 mm^3
6 mg/kg p.o. QD x 21 days, day 11
  Tumor volume: 101 ± 7 mm^3
6 mg/kg p.o. QD x 21 days, day 14
  Tumor volume: 62 ± 4 mm^3
6 mg/kg p.o. QD x 21 days, day 18
  Tumor volume: 49 ± 7 mm^3
6 mg/kg p.o. QD x 21 days, day 21
  Tumor volume: 54 ± 13 mm^3
6 mg/kg p.o. QD x 21 days, day 25 (dosing-free regrowth)
  Tumor volume: 137 ± 74 mm^3
6 mg/kg p.o. QD x 21 days, day 28 (dosing-free regrowth)
  Tumor volume: 230 ± 109 mm^3
6 mg/kg p.o. QD x 21 days, day 32 (dosing-free regrowth)
  Tumor volume: 335 ± 129 mm^3
6 mg/kg p.o. QD x 21 days, day 35 (dosing-free regrowth)
  Tumor volume: 478 ± 161 mm^3
6 mg/kg p.o. QD x 21 days, day 39 (dosing-free regrowth)
  Tumor volume: 751 ± 185 mm^3
6 mg/kg p.o. QD x 21 days, day 42 (dosing-free regrowth)
  Tumor volume: 894 ± 208 mm^3
6 mg/kg p.o. QD x 21 days, day 46 (dosing-free regrowth)
  Tumor volume: 1363 ± 315 mm^3
6 mg/kg p.o. QD x 21 days, day 49 (dosing-free regrowth)
  Tumor volume: 1802 ± 396 mm^3
6 mg/kg p.o. QD x 21 days, day 53 (dosing-free regrowth)
  Tumor volume: 1863 ± 377 mm^3
6 mg/kg p.o. QD x 21 days, day 56 (dosing-free regrowth)
  Tumor volume: 2305 ± 461 mm^3
6 mg/kg p.o. QD × 21 days
  Tumor Size on PG-D21 (Mean ± SEM): 54 ± 13 mm^3
  T/C: 2.9%
  TGI: 110.0%
10 mg/kg p.o. BID x 21 days, day 0
  Tumor volume: 220 ± 15 mm^3
10 mg/kg p.o. BID x 21 days, day 4
  Tumor volume: 126 ± 10 mm^3
10 mg/kg p.o. BID x 21 days, day 7
  Tumor volume: 65 ± 6 mm^3
10 mg/kg p.o. BID x 21 days, day 11
  Tumor volume: 42 ± 4 mm^3
10 mg/kg p.o. BID x 21 days, day 14
  Tumor volume: 26 ± 3 mm^3
10 mg/kg p.o. BID x 21 days, day 18
  Tumor volume: 20 ± 2 mm^3
10 mg/kg p.o. BID x 21 days, day 21
  Tumor volume: 17 ± 2 mm^3
10 mg/kg p.o. BID x 21 days, day 25 (dosing-free regrowth)
  Tumor volume: 17 ± 2 mm^3
10 mg/kg p.o. BID x 21 days, day 28 (dosing-free regrowth)
  Tumor volume: 29 ± 3 mm^3
10 mg/kg p.o. BID x 21 days, day 32 (dosing-free regrowth)
  Tumor volume: 62 ± 16 mm^3
10 mg/kg p.o. BID x 21 days, day 35 (dosing-free regrowth)
  Tumor volume: 112 ± 34 mm^3
10 mg/kg p.o. BID x 21 days, day 39 (dosing-free regrowth)
  Tumor volume: 253 ± 70 mm^3
10 mg/kg p.o. BID x 21 days, day 42 (dosing-free regrowth)
  Tumor volume: 357 ± 91 mm^3
10 mg/kg p.o. BID x 21 days, day 46 (dosing-free regrowth)
  Tumor volume: 550 ± 131 mm^3
10 mg/kg p.o. BID x 21 days, day 49 (dosing-free regrowth)
  Tumor volume: 711 ± 168 mm^3
10 mg/kg p.o. BID x 21 days, day 53 (dosing-free regrowth)
  Tumor volume: 1021 ± 215 mm^3
10 mg/kg p.o. BID x 21 days, day 56 (dosing-free regrowth)
  Tumor volume: 1128 ± 250 mm^3
10 mg/kg p.o. BID × 21 days
  Tumor Size on PG-D21 (Mean ± SEM): 17 ± 2 mm^3
10 mg/kg, p.o., BID × 21 days
  T/C: 0.9%
  TGI: 112.2%
A-375, po, tumor bearing mouse model, BID, read-out: maximally efficacious minimal dose (MED)
  minimal effective dose: 3 mg/kg
[1]
  Tumor Size on PG-D21 (Mean ± SEM): 400 ± 70 mm^3
  T/C: 21.2%
  TGI: 89.2%

Source: patent US20260297060A1, “COMPOUNDS FOR THE DEGRADATION OF MUTANT BRAF” (C4 THERAPEUTICS, INC., priority 2023, published 2026)
